Calls of active or inactive are those of the source. The calls are words filed in the database; no cut-off is given here.
Experiments:
[1] = molecular target: T1, Peroxisome proliferator-activated receptor delta (Homo sapiens) (UniProt Q03181); assay: Agonist activity at GAL4N fused human PPARdelta LBD expressed in HEK293 cells co-expressing TK-MH100x4-Luc after 24 hrs by luciferase reporter gene assay relative to GW501516; type: cell-based
T1 sequence (whole entry): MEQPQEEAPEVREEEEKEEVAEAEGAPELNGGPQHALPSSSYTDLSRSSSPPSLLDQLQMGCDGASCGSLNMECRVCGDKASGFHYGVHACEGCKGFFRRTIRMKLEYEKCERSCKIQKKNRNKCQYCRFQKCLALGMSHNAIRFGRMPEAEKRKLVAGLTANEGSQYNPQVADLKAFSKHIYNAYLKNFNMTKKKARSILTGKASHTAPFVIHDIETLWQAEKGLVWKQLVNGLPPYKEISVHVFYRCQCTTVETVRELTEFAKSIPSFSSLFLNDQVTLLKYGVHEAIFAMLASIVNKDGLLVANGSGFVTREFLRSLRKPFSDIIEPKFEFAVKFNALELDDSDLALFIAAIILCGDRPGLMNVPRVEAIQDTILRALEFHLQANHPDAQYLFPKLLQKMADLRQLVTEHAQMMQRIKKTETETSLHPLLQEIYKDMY

[2] = molecular target: T2, Peroxisome proliferator-activated receptor gamma (Homo sapiens) (UniProt P37231); assay: Agonist activity at GAL4N fused human PPARgamma LBD expressed in HEK293 cells co-expressing TK-MH100x4-Luc after 24 hrs by luciferase reporter gene assay relative to rosiglitazone; type: cell-based
T2 sequence (whole entry): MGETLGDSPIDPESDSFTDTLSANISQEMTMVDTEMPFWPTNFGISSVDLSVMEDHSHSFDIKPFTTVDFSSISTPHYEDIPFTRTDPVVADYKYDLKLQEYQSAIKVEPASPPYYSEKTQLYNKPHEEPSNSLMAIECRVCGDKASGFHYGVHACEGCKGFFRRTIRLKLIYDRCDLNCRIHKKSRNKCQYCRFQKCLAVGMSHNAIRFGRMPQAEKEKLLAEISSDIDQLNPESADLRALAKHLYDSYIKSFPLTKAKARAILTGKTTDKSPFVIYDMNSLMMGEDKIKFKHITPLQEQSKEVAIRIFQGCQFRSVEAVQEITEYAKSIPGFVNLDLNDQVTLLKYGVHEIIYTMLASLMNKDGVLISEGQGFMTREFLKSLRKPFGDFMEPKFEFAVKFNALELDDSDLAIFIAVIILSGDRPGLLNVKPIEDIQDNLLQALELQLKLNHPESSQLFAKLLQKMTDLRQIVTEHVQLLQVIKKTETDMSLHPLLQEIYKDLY

[3] = molecular target: T3, Peroxisome proliferator-activated receptor delta (Homo sapiens, UniProt Q03181); assay: Agonist activity at GAL4N fused human PPARdelta LBD expressed in HEK293 cells co-expressing TK-MH100x4-Luc after 24 hrs by luciferase reporter gene assay; type: cell-based
T3 sequence (Q03181 whole entry): T1 sequence (whole entry)

[4] = molecular target: T4, Peroxisome proliferator-activated receptor gamma (Homo sapiens, UniProt P37231); assay: Agonist activity at GAL4N fused human PPARgamma LBD expressed in HEK293 cells co-expressing TK-MH100x4-Luc after 24 hrs by luciferase reporter gene assay; type: cell-based
T4 sequence (P37231 whole entry): T2 sequence (whole entry)

[5] = molecular target: T5, Peroxisome proliferator-activated receptor alpha (Homo sapiens) (UniProt Q07869); assay: Agonist activity at GAL4N fused human PPARalpha LBD expressed in HEK293 cells co-expressing TK-MH100x4-Luc after 24 hrs by luciferase reporter gene assay relative to GW7647; type: cell-based
T5 sequence (whole entry): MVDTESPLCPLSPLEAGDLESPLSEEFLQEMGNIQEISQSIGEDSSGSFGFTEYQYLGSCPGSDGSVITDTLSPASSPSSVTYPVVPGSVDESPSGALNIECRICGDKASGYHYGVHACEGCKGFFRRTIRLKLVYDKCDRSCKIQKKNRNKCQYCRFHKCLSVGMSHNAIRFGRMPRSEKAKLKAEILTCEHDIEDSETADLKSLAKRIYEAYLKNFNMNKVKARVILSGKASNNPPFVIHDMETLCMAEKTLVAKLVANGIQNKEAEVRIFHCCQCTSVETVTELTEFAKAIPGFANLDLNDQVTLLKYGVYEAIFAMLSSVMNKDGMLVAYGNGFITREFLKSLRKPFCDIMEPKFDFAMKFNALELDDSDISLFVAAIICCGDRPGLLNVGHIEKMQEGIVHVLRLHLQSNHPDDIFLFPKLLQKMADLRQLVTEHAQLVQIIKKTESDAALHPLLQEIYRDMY

[6] = molecular target: T6, Peroxisome proliferator-activated receptor alpha (Homo sapiens, UniProt Q07869); assay: Agonist activity at GAL4N fused human PPARalpha LBD expressed in HEK293 cells co-expressing TK-MH100x4-Luc after 24 hrs by luciferase reporter gene assay; type: cell-based
T6 sequence (Q07869 whole entry): T5 sequence (whole entry)

[7] = molecular target: T2, Peroxisome proliferator-activated receptor gamma (Homo sapiens); assay: Agonist activity at GAL4N fused human PPARgamma LBD expressed in HEK293 cells co-expressing TK-MH100x4-Luc at less than 30 uM after 24 hrs by luciferase reporter gene assay; type: cell-based
[8] = molecular target: T1, Peroxisome proliferator-activated receptor delta (Homo sapiens); assay: Agonist activity at GAL4N fused human PPARdelta LBD expressed in HEK293 cells co-expressing TK-MH100x4-Luc at less than 30 uM after 24 hrs by luciferase reporter gene assay; type: cell-based
[9] = molecular target: T5, Peroxisome proliferator-activated receptor alpha (Homo sapiens); assay: Agonist activity at GAL4N fused human PPARalpha LBD expressed in HEK293 cells co-expressing TK-MH100x4-Luc at less than 30 uM after 24 hrs by luciferase reporter gene assay; type: cell-based
[10] = molecular target: T6, Peroxisome proliferator-activated receptor alpha
[11] = molecular target: T7, Peroxisome proliferator-activated receptor alpha (Mus musculus, UniProt P23204); assay: Agonist activity at 3' GAL4 DNA binding domain fused mouse PPARalpha LBD expressed in U-2 OS cells after 40 hrs by luciferase reporter gene assay; type: cell-based
T7 sequence (P23204 whole entry): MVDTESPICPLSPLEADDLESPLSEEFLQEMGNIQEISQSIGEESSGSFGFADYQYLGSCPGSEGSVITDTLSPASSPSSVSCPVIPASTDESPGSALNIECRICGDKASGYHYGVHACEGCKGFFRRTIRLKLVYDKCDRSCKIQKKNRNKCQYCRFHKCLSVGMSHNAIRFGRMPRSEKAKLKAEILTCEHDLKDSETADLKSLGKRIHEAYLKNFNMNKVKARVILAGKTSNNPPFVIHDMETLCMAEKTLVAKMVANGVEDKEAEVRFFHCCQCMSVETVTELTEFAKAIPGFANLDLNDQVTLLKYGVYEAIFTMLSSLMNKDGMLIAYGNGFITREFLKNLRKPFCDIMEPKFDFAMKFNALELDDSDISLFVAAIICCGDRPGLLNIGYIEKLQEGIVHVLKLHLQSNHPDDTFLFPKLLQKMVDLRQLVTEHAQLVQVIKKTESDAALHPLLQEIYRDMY

[12] = molecular target: T1, Peroxisome proliferator-activated receptor delta (Homo sapiens); assay: Agonist activity at GAL4N fused human PPARdelta LBD expressed in HEK293 cells co-expressing TK-MH100x4-Luc at 50 uM after 24 hrs by luciferase reporter gene assay relative to control; type: cell-based

Row | Efficacy [1] [%] | Efficacy [2] [%] | EC50 [3] [nM] | EC50 [4] [nM] | Efficacy [5] [%] | EC50 [6] [nM] | Activity [7] | Activity [8] | Activity [9] | EC50 [10] [nM] | EC50 [11] [nM] | Efficacy [12] [%] | Compound
1 | 16 to 45 | 39 to 51 | 31000 | 18000 | 87 to 129 | 5400 |  |  |  |  |  |  | CCOC(Cc1ccc(Oc2ccc(OCc3ccccc3)cc2)cc1)C(=O)O (stereo unspecified)
2 | 5 to 14 |  | 970 |  | 3 to 15 | 880 | inactive |  |  |  |  |  | CC(=O)NC(C)c1nc(-c2ccc(OCC=C(c3ccc(Br)cc3)c3ccc(Br)cc3)cc2)no1 (stereo unspecified)
3 |  |  |  |  |  |  | inactive | inactive | inactive |  |  |  | CC(=O)N[C@H](C)c1nc(-c2ccc(OCCc3ccc(OS(C)(=O)=O)cc3)cc2)no1
4 | 2 to 11 |  | 320 |  | 17 to 27 | 240 | inactive |  |  |  |  |  | CC(=O)NC(C)c1nc(-c2ccc(OCCCOc3ccc(Oc4ccccc4)cc3)cc2)no1 (stereo unspecified)
5 |  |  |  |  |  |  |  |  |  | 2800 |  |  | CCO[C@@H](Cc1ccc(OCCN2c3ccccc3Oc3ccccc32)cc1)C(=O)O [RAGAGLITAZAR]
6 |  | 119 to 130 |  | 360 | 122 to 186 | 3800 |  |  |  |  | 1700 | 38 | CCO[C@@H](Cc1ccc(OCCc2ccc(OS(C)(=O)=O)cc2)cc1)C(=O)O [TESAGLITAZAR]
7 | 2 to 9 |  | 450 |  | 7 to 17 | 470 | inactive |  |  |  |  |  | CC(=O)NC(C)c1nc(-c2ccc(OCCN3c4ccccc4Oc4ccccc43)cc2)no1 (stereo unspecified)
8 | 4 to 19 |  | 990 |  | 13 to 33 | 450 | inactive |  |  |  |  |  | CC(=O)N[C@@H](C)c1nc(-c2ccc(OCCc3ccc(OS(C)(=O)=O)cc3)cc2)no1
9 | 7 to 18 |  | 1600 |  | 13 to 37 | 1200 | inactive |  |  |  |  |  | CC(=O)NC(C)c1nc(-c2ccc(OCCc3ccc(OS(C)(=O)=O)cc3)cc2)no1 (stereo unspecified)

— ChEMBL document CHEMBL4020785, “Switching subtype-selectivity: Fragment replacement strategy affords novel class of peroxisome proliferator-activated receptor α/δ (PPARα/δ) dual agonists” (Bioorg Med Chem Lett, 2017)
